ChEMBL document CHEMBL1135630 (J Med Chem, 2002)

Tests used:
Rattus norvegicus [1] = species: Rattus norvegicus; assay: Agonist activity against alpha beta Nicotinic acetylcholine receptor (nAChR) in male rat cerebral cortex using antinociceptive assay in hypothermia test; type: functional
Rattus norvegicus [2] = species: Rattus norvegicus; assay: Agonist activity against alpha beta Nicotinic acetylcholine receptor (nAChR) in male rat cerebral cortex using antinociceptive assay in hot plate test; type: functional
Rattus norvegicus [3] = species: Rattus norvegicus; assay: Agonist activity against alpha beta Nicotinic acetylcholine receptor (nAChR) in male rat cerebral cortex using antinociceptive assay in tail flick test; type: functional
[4] = Inhibition of [3H]- epibatidine binding at the Nicotinic acetylcholine receptor alpha beta (nAChR) in male rat cerebral cortex; type: tissue-based
[5] = molecular target: T1, Neuronal acetylcholine receptor (Rattus norvegicus) (UniProt P04757+P09483+P12389+P12390+P12392+P43144+Q9JLB5+P12391+P43143+P20420+Q05941); assay: Agonist activity against alpha beta Nicotinic acetylcholine receptor (nAChR) in male rat cerebral cortex in antinociceptive assay in hot plate test at a dose of 10 mg/kg; type: functional, organism-based; parameters: dose 10 mg/kg
[6] = molecular target: T1, Neuronal acetylcholine receptor (Rattus norvegicus); assay: Agonist activity against alpha beta Nicotinic acetylcholine receptor (nAChR) in male rat cerebral cortex in antinociceptive assay in tail flick test at a dose of 10 mg/kg; type: functional, organism-based; parameters: dose 10 mg/kg
[7] = molecular target: T1, Neuronal acetylcholine receptor (Rattus norvegicus); assay: Agonist activity against alpha beta Nicotinic acetylcholine receptor (nAChR) in male rat cerebral cortex in antinociceptive assay in hypothermia test at a dose of 10 mg/kg; type: functional, organism-based; parameters: dose 10 mg/kg
Rattus norvegicus [8] = assay: Antagonist activity after subcutaneously administration of nicotine at a dose of 2.5 mg/kg in hotplate test at a concentration of 0.05 mg/kg; type: functional; parameters: scale not given: the % may be the effect or the level left
Rattus norvegicus [9] = assay: Antagonist activity after subcutaneously administration of nicotine at a dose of 2.5 mg/kg in tail-flick test at a concentration of 0.05 mg/kg; type: functional; parameters: scale not given: the % may be the effect or the level left
Rattus norvegicus [10] = assay: Antagonist activity after subcutaneously administration of nicotine at a dose of 2.5 mg/kg in hot- plate test at a concentration of 0.05 mg/kg; type: functional; parameters: scale not given: the % may be the effect or the level left
[11] = molecular target: Neuronal acetylcholine receptor subunit alpha-7 (Rattus norvegicus, UniProt Q05941); assay: Inhibition of [125I]- iodo-MLA binding at the Nicotinic acetylcholine receptor alpha-7 (nAChR) in male rat cerebral cortex; type: tissue-based
Chain of Neuronal acetylcholine receptor subunit alpha-7 (Q05941 whole entry): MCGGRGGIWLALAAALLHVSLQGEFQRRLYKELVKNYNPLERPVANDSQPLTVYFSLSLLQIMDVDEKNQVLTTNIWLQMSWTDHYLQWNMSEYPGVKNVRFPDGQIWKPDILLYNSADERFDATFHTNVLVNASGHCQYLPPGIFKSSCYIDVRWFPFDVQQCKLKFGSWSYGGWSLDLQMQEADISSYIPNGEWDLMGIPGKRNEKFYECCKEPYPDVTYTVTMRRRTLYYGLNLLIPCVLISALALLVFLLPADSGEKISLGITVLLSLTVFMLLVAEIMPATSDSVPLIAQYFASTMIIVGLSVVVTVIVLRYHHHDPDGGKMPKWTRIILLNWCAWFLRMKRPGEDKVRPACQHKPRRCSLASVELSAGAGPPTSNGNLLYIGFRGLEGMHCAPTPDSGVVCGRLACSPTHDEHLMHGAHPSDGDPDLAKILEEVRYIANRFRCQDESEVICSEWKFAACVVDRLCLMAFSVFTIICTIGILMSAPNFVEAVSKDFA

Rattus norvegicus [12] = assay: Antagonist activity after subcutaneously administration of nicotine at a dose of 2.5 mg/kg in tail-flick test (value in parentheses is 95% confidence limits); type: functional; conditions: route subcutaneous
Rattus norvegicus [13] = assay: Antagonist activity after subcutaneously administration of nicotine at a dose of 2.5 mg/kg in hot- plate test, the values expressed as 95% confidence limit (value in parentheses is 95% confidence limits); type: functional; conditions: route subcutaneous
Rattus norvegicus [14] = species: Rattus norvegicus; assay: Agonist activity against alpha beta Nicotinic acetylcholine receptor (nAChR) in male rat cerebral cortex in antinociceptive assay in tail flick test; type: functional
Rattus norvegicus [15] = species: Rattus norvegicus; assay: Agonist activity against alpha beta Nicotinic acetylcholine receptor (nAChR) in male rat cerebral cortex in antinociceptive assay in hypothermia test; type: functional
Rattus norvegicus [16] = species: Rattus norvegicus; assay: Agonist activity against alpha beta Nicotinic acetylcholine receptor (nAChR) in male rat cerebral cortex in antinociceptive assay in hot plate test; type: functional
Rattus norvegicus [17] = assay: Antagonist activity after subcutaneously administration of nicotine at a dose of 2.5 mg/kg in hot- plate test at a concentration of 0.01 mg/kg; type: functional; parameters: scale not given: the % may be the effect or the level left
Rattus norvegicus [18] = assay: Antagonist activity after subcutaneously administration of nicotine at a dose of 2.5 mg/kg in tail-flick test at a concentration of 0.01 mg/kg; type: functional; parameters: scale not given: the % may be the effect or the level left

Row | SMILES | ED50 (Rattus norvegicus [1]) | ED50 (Rattus norvegicus [2]) | ED50 (Rattus norvegicus [3]) | Ki [4] | other results
1 | Clc1ncc([C@H]2CC3CCC2N3)cc1Br (stereo partly drawn) | 40 µg/kg | 20 µg/kg | 30 µg/kg | 0.013 nM | –
2 | Brc1ccc([C@H]2CC3CCC2N3)cn1 (stereo partly drawn) | – | – | – | 0.023 nM | –
3 | Oc1ncc([C@H]2CC3CCC2N3)cc1Br (stereo partly drawn) | – | – | – | 14.4 nM | Effect [5]: 9%; Effect [6]: 1%; Effect [7]: 0%
4 | Nc1ncc([C@H]2CC3CCC2N3)cc1Br (stereo partly drawn) | 75 µg/kg | 50 µg/kg | 70 µg/kg | 0.29 nM | –
5 | Ic1ccc(C2CC3CCC2N3)cn1 (stereo not drawn) | – | – | – | 0.07 nM | –
6 | Fc1ccc(C2CC3CCC2N3)cn1 (stereo not drawn) | – | – | – | 0.027 nM | –
7 | Fc1ncc([C@H]2CC3CCC2N3)cc1Cl (stereo partly drawn) | – | – | – | 0.02 nM | –
8 | Brc1cc([C@H]2CC3CCC2N3)cnc1I (stereo partly drawn) | 40 µg/kg | 240 µg/kg | 270 µg/kg | 0.027 nM | Effect (Rattus norvegicus [8]): 0%; Effect (Rattus norvegicus [9]): 4%
9 | Fc1ncc([C@H]2CC3CCC2N3)cc1Br (stereo partly drawn) | 10 µg/kg | 1200 µg/kg | 700 µg/kg | 0.071 nM | Effect (Rattus norvegicus [10]): 0%; Effect (Rattus norvegicus [9]): 0%
10 | Fc1cc(C2CC3CCC2N3)cnc1Cl (stereo not drawn) | 6 µg/kg | 9 µg/kg | 8 µg/kg | 0.025 nM | Ki [11]: 3.43 nM
11 | Nc1ncc([C@H]2CC3CCC2N3)cc1I (stereo partly drawn) | 300 µg/kg | 500 µg/kg | 650 µg/kg | 0.52 nM | Ki [11]: 34.1 nM
12 | Brc1cc([C@H]2CC3CCC2N3)cnc1Br (stereo partly drawn) | – | – | – | 0.015 nM | –
13 | Clc1cc([C@H]2CC3CCC2N3)cnc1Cl (stereo partly drawn) | 20 µg/kg | 30 µg/kg | 50 µg/kg | 0.014 nM | Ki [11]: 1.12 nM
14 | Nc1cc([C@H]2CC3CCC2N3)cnc1Cl (stereo partly drawn) | 17 µg/kg | 20 µg/kg | 20 µg/kg | 0.001 nM | AD50 (Rattus norvegicus [12]): 0.03 µg/kg; Ki [11]: 13.9 nM; AD50 (Rattus norvegicus [13]): 0.6 µg/kg
15 | Fc1cc([C@H]2CC3CCC2N3)cnc1F (stereo partly drawn) | – | – | – | 0.055 nM | –
16 | Fc1ncc([C@H]2CC3CCC2N3)cc1I (stereo partly drawn) | 300 µg/kg | 900 µg/kg | 700 µg/kg | 0.051 nM | Effect (Rattus norvegicus [10]): 0%; Effect (Rattus norvegicus [9]): 0%
17 | Clc1ccc(C2CC3CCC2N3)cn1 (racemic) [EPIBATIDINE] | – | – | – | – | ED50 (Rattus norvegicus [14]): 6 µg/kg; ED50 (Rattus norvegicus [15]): 4 µg/kg; ED50 (Rattus norvegicus [16]): 4 µg/kg
18 | Nc1ccc([C@H]2CC3CCC2N3)cn1 (stereo partly drawn) | – | – | – | 1.3 nM | –
19 | Oc1ccc([C@H]2CC3CCC2N3)cn1 (stereo partly drawn) | – | – | – | 1.5 nM | ED50 (Rattus norvegicus [14]): 1500 µg/kg; Ki [11]: 675 nM; ED50 (Rattus norvegicus [15]): 1200 µg/kg; ED50 (Rattus norvegicus [16]): 500 µg/kg
20 | Clc1ncc(C2CC3CCC2N3)cc1I (stereo not drawn) | 27 µg/kg | 140 µg/kg | 240 µg/kg | 0.008 nM | Effect (Rattus norvegicus [17]): 0%; Effect (Rattus norvegicus [18]): 4%
